Test results from US8436043B2 (Takeda Pharmaceutical Company Limited, priority 2008, dated 2013).

Key:
[1] = target: T1, human glucagon receptor (Homo sapiens, UniProt P47871); test: Glucagon binding inhibitory activity ([125I]-glucagon binding to glucagon receptor membrane protein); conditions: for IC50: human glucagon receptor membrane protein, [125I]-glucagon, 90 min room temperature; for inhibition at 10 µM: read-out: inhibitory rate (%) at 10 μM
T1 construct: made in house; host or cells: FreeStyle CHO cells, transient transfection with pMSRαneo/hGCGR; membrane fraction (35,000 rpm pellet)
T1 sequence (P47871 26-477): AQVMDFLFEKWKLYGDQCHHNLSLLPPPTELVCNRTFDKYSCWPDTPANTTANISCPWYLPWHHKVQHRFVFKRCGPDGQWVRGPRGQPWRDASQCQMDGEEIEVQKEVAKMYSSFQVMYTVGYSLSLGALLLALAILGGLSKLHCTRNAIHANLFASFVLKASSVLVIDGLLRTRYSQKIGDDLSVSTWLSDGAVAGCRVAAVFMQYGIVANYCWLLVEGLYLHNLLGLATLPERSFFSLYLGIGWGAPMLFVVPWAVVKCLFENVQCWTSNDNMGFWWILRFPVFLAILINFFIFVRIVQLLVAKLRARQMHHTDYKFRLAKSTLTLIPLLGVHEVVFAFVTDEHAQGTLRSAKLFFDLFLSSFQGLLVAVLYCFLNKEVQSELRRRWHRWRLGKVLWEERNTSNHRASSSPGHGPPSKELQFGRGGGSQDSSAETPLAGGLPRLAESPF
How it was run: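 Receptor source was a membrane fraction of transiently transfected CHO cells bearing human receptor; 90 min room-temperature binding, filtration harvest, scintillation counting.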

[2] = test system: glucagon-induced blood glucose increase; test: Suppressive action test for glucagon-induced blood glucose increase (rat); assay type: in vivo; conditions: SD rats male, 10 mg/kg oral, glucagon 15 μg/kg s.c. 60 min later, blood glucose 20 min after glucagon
Protocol: Suppressive Action Test for Glucagon-Induced Blood Glucose Increase (Rat)
Full feeding SD rats (male, 7- to 9-week-old) were fasted, 0.5% methylcellulose suspension containing a test compound (10 mg/kg body weight) (compound administration group, 5 rats per group) or 0.5% methylcellulose suspension (compound non-administration group, 12 rats, per group) was orally administered, and 60 min later, glucagon (15 μg/kg body weight, Novo Nordisk Pharma Ltd.) was subcutaneously administered. At 20 min from the glucagon administration, blood samples were collected from the rat tail vein and the blood glucose was measured using a self-testing glucose kit ACCU-CHEK (Roche Diagnostics K.K.). In addition, as a non-treatment group (5 rats per group), the blood glucose of rat (compound non-treatment group) free of glucagon administration was measured in the same manner as above.
The difference between the blood glucose of compound non-administration group or compound administration group and the blood glucose of non-treatment group was calculated. The percentage of “the difference between blood glucose of compound administration group and blood glucose of non-treatment group” was obtained as “blood glucose increase rate (% of control)” where “the difference between blood glucose of compound non-administration group and that of non-treatment group” is 100%.

[3] = test compound 10 μM, 0.4% DMSO = 0%, non-labeled glucagon 1 μM = 100%

SMILES: Cc1c(C(Nc2ccc(C(=O)N(C)CCC(=O)O)cc2)C2CCCCC2)oc2ccccc12 (stereo not drawn) [Example A41]
- inhibitory rate (%) at 10 μM [1, 3]: 86%
- blood glucose increasing rate (% of control) [2]: 16.6 % of control

SMILES: CCC(CC)C(Nc1ccc(C(=O)N(C)CCC(=O)O)cc1)c1oc2ccc(F)cc2c1C (single isomer, unassigned) [Example A73, 3-{[(4-{[2-ethyl-1-(5-fluoro-3-methyl-1-benzofuran-2-yl)butyl]amino}phenyl)carbonyl](methyl)amino}propanoic acid]
- IC50 [1]: 900 nM
- inhibition at 10 µM [1, 3]: 87%
- blood glucose increasing rate (% of control) [2]: 24.2 % of control

SMILES: Cc1c(C(Nc2ccc(C(=O)N(C)CCC(=O)O)cc2)C2CCCCC2)oc2ccc(OC3CCOCC3)cc12 (single isomer, unassigned) [Example A83, 3-[{[4-({cyclohexyl[3-methyl-5-(tetrahydro-2H-pyran-4-yloxy)-1-benzofuran-2-yl]methyl}amino)phenyl]carbonyl}(methyl)amino]propanoic acid]
- IC50 [1]: 84 nM
- inhibition at 10 µM [1, 3]: 93%
- blood glucose increasing rate (% of control) [2]: 43.0 % of control

SMILES: Cc1c(C(Nc2ccc(C(=O)N(C)CCC(=O)O)cn2)C2CCCCC2)oc2ccc(F)cc12 (single isomer, unassigned) [Example A53, 3-{[(6-{[cyclohexyl(5-fluoro-3-methyl-1-benzofuran-2-yl)methyl]amino}pyridin-3-yl)carbonyl](methyl)amino}propanoic acid]
- IC50 [1]: 570 nM
- inhibition at 10 µM [1, 3]: 83%
- blood glucose increasing rate (% of control) [2]: 27.4 % of control

SMILES: CSCCCOc1ccc2oc(C(Nc3ccc(C(=O)N(C)CCC(=O)O)cc3)C3CCCCC3)c(C)c2c1 (stereo not drawn) [Example A150, 3-[({4-[(cyclohexyl{3-methyl-5-[3-(methylsulfanyl)propoxy]-1-benzofuran-2-yl}methyl)amino]phenyl}carbonyl)(methyl)amino]propanoic acid]
- inhibition at 10 µM [1, 3]: 81%

SMILES: Cc1c(C(Nc2ccc(C(=O)NCCC(=O)O)cc2)C2CCCCC2)oc2ccc(OCc3ccc(Cl)nc3)cc12 (stereo not drawn) [Example A169, 3-{[(4-{[{5-[(6-chloropyridin-3-yl)methoxy]-3-methyl-1-benzofuran-2-yl}(cyclohexyl)methyl]amino}phenyl)carbonyl]amino}propanoic acid]
- inhibition at 10 µM [1, 3]: 86%

SMILES: O=C(O)CCNC(=O)c1ccc(NC(c2cc3cc(C(F)(F)F)ccc3s2)C2CCCCC2)cc1 (stereo not drawn) [Example A11, 3-({[4-({cyclohexyl[5-(trifluoromethyl)-1-benzothiophen-2-yl]methyl}amino)phenyl]carbonyl}amino)propanoic acid]
- inhibition at 10 µM [1, 3]: 74%

SMILES: COc1ccc2oc(C(Nc3ccc(C(=O)N(C)CCC(=O)O)cc3)C3CCCCC3)cc2c1 (stereo not drawn) [Example A25, 3-{[(4-{[cyclohexyl(5-methoxy-1-benzofuran-2-yl)methyl]amino}phenyl)carbonyl](methyl)amino}propanoic acid]
- inhibition at 10 µM [1, 3]: 60%

SMILES: O=C(O)CCNC(=O)c1ccc(NC(c2cn(-c3ccccc3)nc2OCc2ccccc2)C2CCCCC2)cc1 (stereo not drawn) [Example 66, 3-({[4-({[3-(benzyloxy)-1-phenyl-1H-pyrazol-4-yl](cyclohexyl)methyl}amino)phenyl]carbonyl}amino)propanoic acid]
- inhibition at 10 µM [1, 3]: 74%

SMILES: CCc1oc2ccccc2c1C(Nc1ccc(C(=O)N(C)CCC(=O)O)cc1)C1CCCCC1 (stereo not drawn) [Example A26, 3-{[(4-{[cyclohexyl(2-ethyl-1-benzofuran-3-yl)methyl]amino}phenyl)carbonyl](methyl)amino}propanoic acid]
- inhibition at 10 µM [1, 3]: 64%

SMILES: Cc1c(C(Nc2ccc(C(=O)NCCC(=O)O)cc2)C2CCCCC2)oc2c(F)cc(F)cc12 (stereo not drawn) [Example A163, 3-{[(4-{[cyclohexyl(5,7-difluoro-3-methyl-1-benzofuran-2-yl)methyl]amino}phenyl)carbonyl]amino}propanoic acid]
- inhibition at 10 µM [1, 3]: 87%

SMILES: Cc1nn(-c2ccc(Cl)cc2)cc1C(Nc1ccc(C(=O)N(C)CCC(=O)O)cc1)C1CCCCC1 (stereo not drawn) [Example 20, 3-[{[4-({[1-(4-chlorophenyl)-3-methyl-1H-pyrazol-4-yl](cyclohexyl)methyl}amino)phenyl]carbonyl}(methyl)amino]-propanoic acid]
- inhibition at 10 µM [1, 3]: 79%

SMILES: Cc1c(C(Nc2ccc(C(=O)N(C)CCC(=O)O)cn2)C2CCCCC2)oc2c(F)cc(F)cc12 (stereo not drawn) [Example A185, 3-{[(6-{[cyclohexyl(5,7-difluoro-3-methyl-1-benzofuran-2-yl)methyl]amino}pyridin-3-yl)carbonyl](methyl)amino}propanoic acid]
- inhibition at 10 µM [1, 3]: 71%

SMILES: Cc1sc2ccccc2c1C(Nc1ccc(C(=O)N(C)CCC(=O)O)cc1)C1CCCCC1 (stereo not drawn) [Example A9, 3-{[(4-{[cyclohexyl(2-methyl-1-benzothiophen-3-yl)methyl]amino}phenyl)carbonyl](methyl)amino}propanoic acid]
- inhibition at 10 µM [1, 3]: 67%

SMILES: COc1ccc(-n2cc(C(Nc3ccc(C(=O)NCCC(=O)O)cc3)C3CCCCC3)c(C(C)C)n2)cc1 (stereo not drawn) [Example 52, 3-({[4-({cyclohexyl[1-(4-methoxyphenyl)-3-(1-methylethyl)-1H-pyrazol-4-yl]methyl}amino)phenyl]carbonyl}amino)propanoic acid]
- inhibition at 10 µM [1, 3]: 63%

SMILES: Cc1c(C(CC(C)C)Nc2ccc(C(=O)NCCC(=O)O)cc2)oc2ccccc12 (stereo not drawn) [Example A23, 3-{[(4-{[3-methyl-1-(3-methyl-1-benzofuran-2-yl)butyl]amino}phenyl)carbonyl]amino}propanoic acid]
- inhibition at 10 µM [1, 3]: 77%

SMILES: COc1ccc2oc(C(CCCCSC)Nc3ccc(C(=O)N(C)CCC(=O)O)cc3)c(C)c2c1 (stereo not drawn) [Example A121, 3-{[(4-{[1-(5-methoxy-3-methyl-1-benzofuran-2-yl)-5-(methylsulfanyl)pentyl]amino}phenyl)carbonyl](methyl)amino}-propanoic acid]
- inhibition at 10 µM [1, 3]: 59%

SMILES: Cc1c(C(Nc2ccc(C(=O)N(C)CCC(=O)O)cc2)C2CCCCC2)oc2ccc(Br)nc12 (stereo not drawn) [Example A126, 3-{[(4-{[(5-bromo-3-methylfuro[3,2-b]pyridin-2-yl)(cyclohexyl)methyl]amino}phenyl)carbonyl](methyl)amino}-propanoic acid]
- inhibition at 10 µM [1, 3]: 68%

SMILES: COCc1c(C(Nc2ccc(C(=O)NCCC(=O)O)cc2)C2CCCCC2)oc2ccc(F)cc12 (stereo not drawn) [Example A47, 3-({[4-({cyclohexyl[5-fluoro-3-(methoxymethyl)-1-benzofuran-2-yl]methyl}amino)phenyl]carbonyl}amino)propanoic acid]
- inhibition at 10 µM [1, 3]: 67%

SMILES: COc1ccc2oc(C(Nc3ccc(C(=O)N(C)CCC(=O)O)cc3)C3CCCCC3)c(C#N)c2c1 (stereo not drawn) [Example A109, 3-{[(4-{[(3-cyano-5-methoxy-1-benzofuran-2-yl)(cyclohexyl)methyl]amino}phenyl)carbonyl](methyl)amino}-propanoic acid]
- inhibition at 10 µM [1, 3]: 58%
